Test results from patent US20020037327A1, “Treatment for cancer and compounds for use therein” (priority 1997, published 2002).
Where two headings read alike, the source gives them in different places.

Legend:
[1] = Water solubility of the prepared compound; assay type: physicochemical
Method: Bismuth iodiscorbate was prepared by dissolving 58 g of concentrated hydriodic acid (56.1 weight-percent) into 350 mls of water. Next, 5 g of 0.0085 molar bismuth (III) iodide was crushed in a mortar, and then dissolved in the solution. Next, 2.3 g of 0.0085 molar strontium hydroxide octahydrate was stirred into the solution, followed by the addition of 4.5 g of 0.026 molar L-ascorbic acid. The mixture was stirred for three hours, then stripped to dryness on a rotary evaporator. The residue then was redissolved in 500 ml water and filtered, and again stripped on a rotary evaporator. This process assisted in the removal of excess hydriodic acid. The residue again was dissolved in 500 ml of water, filtered, and stripped to dryness on a rotary evaporator. An orange solid then was removed from the flask and bottled. This procedure yielded 9.1 g of what is designated as SrBiI2[ascorbate]3. This compound was water soluble.
Potassium iodiscorbate was prepared by adding 6.5 g of 0.12 molar potassium hydroxide and 16.0 g of 0.06 molar strontium hydroxide octahydrate to 500 ml water in a 1000-ml beaker, resulting in a white, cloudy solution. The mixture was stirred for about 2 hours. Next, 13.0 g of 0.06 molar hydriodic acid (56 weight-percent) was added, and the mixture was stirred for three hours. Next, […] of 0.18 molar L-ascorbic acid was added, turning the mixture clear in about 5 minutes. The mixture then was stirred for another 0.5 hour. The water was removed under vacuo, and the residue dried under vacuum for about 8 hours. The solids were removed from the flask and bottles. The structure is designated as [ascorbate]2SrK[ascorbate]KI. This compound also was water soluble.
Zinc iodiscorbate was prepared by adding 4.0 g of 0.05 molar zinc oxide and 13.3 g of 0.05 molar strontium hydroxide octahydrate to 500 ml of distilled water, resulting in a white suspension. The mixture then was treated with 11.2 g of 0.05 molar concentrated hydriodic acid and stirred for two hours. A white suspension still remained. […]

[2] = test system: MCF-7 breast carcinoma cells; experiment: In vitro percent cell survival, crystal violet assay, breast carcinoma cells; assay type: cell-based, human; settings: 48 hours
Method: (§1) Three compounds of the present invention, specifically, bismuth iodiscorbate, potassium iodiscorbate, and zinc iodiscorbate, were tested in vitro on both tumorous and normal human cells. Three cell lines were obtained through the American Type Culture Collection (Rockville, Maryland). The first cell line, designated HUV-EC-C, consisted of human umbilical cord vein normal endothelial cells. These noncancerous cells were used as a control. The second cell line, MCF-7, consisted of breast carcinoma cells. The third cell line, ME-180, consisted of uterine cervix carcinoma cells.
(§2) The data shown in FIGS. 5-7 were derived by the following steps. HUV-EC-C was cultured in a solution of 90% F12 medium (GIBCO-BRL, Grand Island, N.Y.) and 10% fetal bovine serum (Hyclone, Logan, Utah) with 100 μg/ml heparin and 30 μg/ml ECGF (endothelial cell growth factor; Sigma Chemical Co., St. Louis, Mo.). MCF-7 and ME-180 were grown in a solution of 90% minimal essential medium (GIBCO-BRL) and 10% fetal bovine serum (Hyclone). The cells were grown to approximately 90% confluence in T25 cell culture flasks (Falcon-Becton Dickinson Labware, Franklin Lakes, N.J.) in a 37° C. humidified incubator in the presence of 5% C02−95% air.
(§3) Flasks were removed from the incubator and placed in a sterile laminar flow hood. All cell manipulation procedures were performed in this sterile hood. The flasks were rinsed in 5 ml of sterile phosphate-buffered saline (PBS; Sigma) and the monolayer of cells was released from the flask by adding 5 ml of 1X trypsin-EDTA (Sigma) in PBS. The flask was capped and placed back in the incubator for 10 minutes. The flasks were removed from the incubator, and cells plus trypsin-EDTA solution were transferred to a 15 ml centrifuge tube (Falcon) and 5 ml of cell growth medium was added. The tubes were centrifuged at 500 g for 10 minutes at room temperature. The tubes then were placed back in the hood and supernatant (top liquid) was removed with a sterile pipette (Falcon). […] The cell density in the hemacytometer was determined by counting cells visible by microscopy. […]

[3] = test system: ME-180 uterine cervix carcinoma cells; experiment: In vitro percent cell survival, crystal violet assay, uterine cervix carcinoma cells; assay type: cell-based, human; settings: 48 hours; for survival of human cervical carcinoma cells (ME-180): concentration not given
Method: as §1, §2, §3

[4] = test system: HUV-EC-C human umbilical cord vein normal endothelial cells; experiment: In vitro percent cell survival, crystal violet assay, normal endothelial cells (control); assay type: cell-based; settings: 48 hours
Method: as §1, §2
Flasks were removed from the incubator and placed in a sterile laminar flow hood. […] The cell density in the hemacytometer was determined by counting cells visible by microscopy. […]

[5] = test system: cells at high density (near confluence in culture dishes); experiment: Treatment of cells at high density (near confluence); assay type: cell-based, human; settings: 400 μg/ml
Source text: FIG. 5 depicts percent cell survival against various concentrations of potassium iodiscorbate.

mice = experiment: In vivo toxicology study in mice
Method: A toxicology study also was performed. Specifically, the toxicology of potassium iodiscorbate was evaluated through in vivo tests on mice. Potassium iodiscorbate was prepared as a stock solution of 175 mg/ml in saline and administered to mice. Injections consisted of a volume not exceeding 0.1 ml administered through the tail vein (intravenously), or a volume not exceeding 0.2 ml (by an intraperitoneal route). Doses up to 1000 mg/kg (intraperitoneal injection) and 500 mg/kg (intravenous injection) caused no apparent toxicity. This dose should permit use of the compounds of the present invention in concentrations (refer to FIGS. 5-7) that approximate those necessary for selective inhibition of malignant cell growth.

Substance	solubility in water [1]	survival of human breast cancer cells (MCF-7) ([2]; concentration not given)	survival of human cervical carcinoma cells (ME-180) [3]	solubility in water ([1]; product as prepared)	survival of breast carcinoma cells (MCF-7) ([2]; concentrations greater than 100 μg/ml)	growth of normal human endothelial cells (HUV-EC-C) ([4]; any concentration tested)	effect on cells at high density [5]	doses that caused no apparent toxicity (mice; intraperitoneal injection)	doses that caused no apparent toxicity (mice; intravenous injection (tail vein)) [mg/kg]	survival of breast carcinoma cells (MCF-7) with respect to normal cell growth ([2]; about 80-100 μg/ml)	survival of cervical carcinoma cells (ME-180) with respect to normal cell growth ([3]; about 80-100 μg/ml)	normal cell growth (HUV-EC-C) ([4]; about 80-100 μg/ml)
Bismuth iodiscorbate	water soluble	effective in reducing the survival	effective in reducing the survival									
Potassium iodiscorbate			reduced dramatically the survival	water soluble	reducing dramatically the survival	did not affect the growth	little effect	up to 1000 mg/kg	≤ 500			
Zinc iodiscorbate				water soluble						reduced dramatically	reduced dramatically	without serious reduction of normal cell growth
